Experiments:
Assay in all cases: relative viability (nuclei count vs DMSO), 5 days (fraction); higher = more cells survive
Quizartinib + Bortezomib = compound: CC(C)(C)c1cc(NC(=O)Nc2ccc(-c3cn4c(n3)sc3cc(OCCN5CCOCC5)ccc34)cc2)no1 [Quizartinib] + CC(C)C[C@H](NC(=O)[C@H](Cc1ccccc1)NC(=O)c1cnccn1)B(O)O [Bortezomib] (partner 0.002 µM)
In short: (§1)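 Lung cancer cell lines in 1536-well plates got either a single drug or a fixed anchor-drug dose together with five library-drug doses (not always all listed) in √10 steps, by pin tool, on the day after seeding. Nuclei were counted after 5 days, and relative viability is the treated-to-vehicle ratio of nuclei counts. Values are medians of duplicate plates.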

YM155 + Phenformin = compound: COCC[n+]1c2c(n(Cc3cnccn3)c1C)C(=O)c1ccccc1C2=O [YM155] + N=C(N)NC(=N)NCCc1ccccc1 [Phenformin] (partner 250 µM)
In short: as §1

Quizartinib + Vorinostat = compound: CC(C)(C)c1cc(NC(=O)Nc2ccc(-c3cn4c(n3)sc3cc(OCCN5CCOCC5)ccc34)cc2)no1 [Quizartinib] + O=C(CCCCCCC(=O)Nc1ccccc1)NO [Vorinostat] (partner 1 µM)
In short: as §1

YM155 + AZD7762 = compound: COCC[n+]1c2c(n(Cc3cnccn3)c1C)C(=O)c1ccccc1C2=O [YM155] + NC(=O)Nc1cc(-c2cccc(F)c2)sc1C(=O)N[C@H]1CCCNC1 [AZD7762] (partner 0.2 µM)
In short: as §1

Cell Line	relative viability (Quizartinib + Bortezomib; first compound 0.001 µM)	relative viability (Quizartinib + Bortezomib; first compound 0.003162 µM)	relative viability (Quizartinib + Bortezomib; first compound 0.01 µM)	relative viability (Quizartinib + Bortezomib; first compound 0.03162 µM)	relative viability (Quizartinib + Bortezomib; first compound 0.1 µM)	relative viability (YM155 + Phenformin; first compound 0.002 µM)	relative viability (YM155 + Phenformin; first compound 0.006325 µM)	relative viability (YM155 + Phenformin; first compound 0.02 µM)	relative viability (YM155 + Phenformin; first compound 0.06325 µM)	relative viability (Quizartinib + Vorinostat; first compound 0.001 µM)	relative viability (Quizartinib + Vorinostat; first compound 0.003162 µM)	relative viability (Quizartinib + Vorinostat; first compound 0.01 µM)	relative viability (Quizartinib + Vorinostat; first compound 0.03162 µM)	relative viability (Quizartinib + Vorinostat; first compound 0.1 µM)	relative viability (YM155 + AZD7762; first compound 0.002 µM)	relative viability (YM155 + AZD7762; first compound 0.006325 µM)	relative viability (YM155 + AZD7762; first compound 0.02 µM)	relative viability (YM155 + AZD7762; first compound 0.06325 µM)
HCC-15	0.759	0.992	0.987	0.984	0.988	0.465	0.464	0.464	0.494	0.747	0.799	0.882	0.823	0.832	0.661	1.28	1.19	1.17
HCC-44	0.878	0.937	0.941	0.838	0.775	0.132	0.283	0.248	0.202	1.23	1.09	1.13	1.21	1.11	1.04	1.06	1.07	0.976
HCC-78	0.435	0.477	0.546	0.511	0.448	0.638	0.73	0.779	0.76	0.453	0.44	0.445	0.419	0.445	0.612	0.779	0.755	0.629
HCC-366	0.989	0.974	1.13	0.967	1.01	0.592	0.55	0.628	0.597	0.307	0.381	0.302	0.243	0.386	0.315	0.28	0.327	0.273
HCC-827	0.998	1.11	1.02	1.06	1.01	0.419	0.404	0.375	0.473	0.797	0.881		0.724	0.886	0.224	0.293	0.239	0.241
HOP-62	0.564	0.72	0.73	0.517	0.749	0.566	0.648	0.658	0.6	0.456	0.429	0.577	0.566	0.619	0.484	0.427	0.902	0.43
LC-2-ad	0.955	0.954	1.11	1.06	0.996	0.528	0.616	0.581	0.535	0.603	0.688	0.733	0.681	0.694	0.8	0.842	0.854	0.841
LCLC-97TM1		0.689	0.811		0.527	0.387	0.432	0.407	0.447	0.573	0.52	0.685	0.677	0.767	0.158	0.251	0.231	0.096
LCLC-103H	0.871	1.01	0.994	1	1.12	0.359	0.314	0.347	0.323	0.743	0.735	0.663	0.812	0.779	0.752	0.821	0.832	0.781
LOU-NH91	0.481	0.509	0.538	0.433	0.513	0.647	0.783	0.785	0.783	0.86	1.04	0.899	0.721	1.12	0.766	0.756	0.769	0.8
LU99A	0.837	1.08	1.3	1.19	1.2	0.856	0.883	0.822	0.847	0.373	0.51	0.449	0.481	0.502	0.553	0.27	0.412	0.28
LXF-289	0.868	0.955	0.983	0.949	1.03	0.522	0.524	0.506	0.532	0.645	0.752	0.782	0.726	0.738	1.1	1.07	1.07	0.937
NCI-H23		0.937	1.08	0.97	0.888	0.735	0.774	0.729	0.634	0.576	0.6	0.545	0.593	0.649		0.292	0.308	0.239
NCI-H322M	1.15	1.26	1.27	1.24	1.15	0.775	0.837	0.849	0.852	0.867	0.842	0.836	0.878	0.903	0.53	0.579	0.593	0.572
NCI-H441	0.476	0.466	0.451	0.576	1.57	0.776	0.848	0.763	0.865	0.755	0.683	0.972	0.595	0.834	0.947	1.23	1.09	0.246
NCI-H460	0.881	0.987	1.24		0.68	0.518	0.531	0.546	0.477		0.734	0.687		0.566	0.596	0.628	0.777	0.459
NCI-H596	1.15	0.92	1.1	1.19	1.2	0.65	0.718	0.861	0.741	0.565	0.775	0.61	0.686	0.6	0.989	0.98	1.28	1.11
NCI-H647	0.91	1.08	0.71	0.999	1.29	0.49	0.636	0.587	0.491	0.567	0.494	0.655	0.688	0.998	0.429	0.509	0.407	0.0872

Cell Line	relative viability (Quizartinib + Bortezomib; first compound 0.001 µM)	relative viability (Quizartinib + Bortezomib; first compound 0.003162 µM)	relative viability (Quizartinib + Bortezomib; first compound 0.01 µM)	relative viability (Quizartinib + Bortezomib; first compound 0.03162 µM)	relative viability (Quizartinib + Bortezomib; first compound 0.1 µM)	relative viability (YM155 + Phenformin; first compound 0.002 µM)	relative viability (YM155 + Phenformin; first compound 0.006325 µM)	relative viability (YM155 + Phenformin; first compound 0.02 µM)	relative viability (YM155 + Phenformin; first compound 0.06325 µM)	relative viability (Quizartinib + Vorinostat; first compound 0.001 µM)	relative viability (Quizartinib + Vorinostat; first compound 0.003162 µM)	relative viability (Quizartinib + Vorinostat; first compound 0.01 µM)	relative viability (Quizartinib + Vorinostat; first compound 0.03162 µM)	relative viability (Quizartinib + Vorinostat; first compound 0.1 µM)	relative viability (YM155 + AZD7762; first compound 0.002 µM)	relative viability (YM155 + AZD7762; first compound 0.006325 µM)	relative viability (YM155 + AZD7762; first compound 0.02 µM)	relative viability (YM155 + AZD7762; first compound 0.06325 µM)
NCI-H650	0.785	0.768	0.818	0.885	1.01	0.417	0.477	0.523	0.447	0.464	0.445	0.416	0.456	0.54	0.835	0.958	1.08	0.776
NCI-H727	0.656		0.955	0.767	0.833	0.532	0.522	0.634	0.689	1.16	1.13	1.18	1.27	1.42	0.768	0.676	0.684	0.703
NCI-H838	0.458	0.763	0.65	0.926	0.534	0.54	0.625	0.583	0.717	0.68	0.662	0.794	0.707	0.683	0.936	0.904	0.932	0.726
NCI-H1355	1.07	1.28	1.09	1.25	1.28	0.442	0.46	0.493	0.499	0.631	0.607	0.627	0.647	0.647	0.74	0.749	0.781	0.798
NCI-H1437	0.354	0.492	0.393	0.49	0.255	0.285	0.308	0.257	0.324	0.606	0.81	0.78	0.758	0.591	1.11	1.08	1.1	0.926
NCI-H1651	0.801	0.938	1.08	0.888	0.993	0.316	0.366	0.326	0.377	0.535	0.64	0.551	0.527	0.612	0.44	0.433	0.533	0.487
NCI-H1666	0.738	0.753	0.823	0.511	0.813	0.567	0.599	0.578	0.579	1.06	0.974	1.16	0.893	1.07	0.821	0.824	0.907	0.847
NCI-H1734	0.862	0.769	1.05	0.776	0.944	0.43	0.451	0.404	0.509	0.748	0.802	0.796	0.746	0.854	0.489	0.582	0.614	0.539
NCI-H1755	0.858	0.979	0.956	0.973	0.969	0.626	0.575	0.602	0.657	0.723	0.69	0.796	0.946	0.717	0.478	0.445	0.427	0.493
NCI-H1915	0.924	0.836	0.916	1.06	1.01	0.351	0.357	0.368	0.355	0.55	0.442	0.49	0.551	0.562	0.728	0.659	0.662	0.553
NCI-H1975	0.333	0.374	0.389	0.368	0.497	0.384	0.415	0.406	0.395	0.669	0.695	0.745	0.705	0.721	0.726	0.734	0.701	0.439
NCI-H1993	1.2	1.17	1.19	1.02	1.33	0.463	0.547	0.488	0.512	0.68	0.76	0.939	0.726	0.725	0.687	0.775	0.475	0.537
NCI-H2085	0.981	0.994	1.1	0.952	0.982	0.782	0.835	0.847	0.725	0.694	0.784	0.791	0.796	0.733	0.928	0.975	0.979	0.801
NCI-H2087	0.833	0.927	0.88	0.939	0.914	0.476	0.448	0.498	0.495	0.751	0.705	0.676	0.384	0.73	1.18	1.29	1.26	1.04
NCI-H2126	0.708	1.06	1.12	1.14	1.15	0.508	0.597	0.555	0.522	0.621	0.789	0.711	0.816	0.841	0.995	1.04	1.08	1.05
NCI-H2347	0.757	1.14	0.968	0.959	1.23	0.489	0.395	0.582	0.448	0.544	0.647	0.715	0.522	0.603	0.659	0.748	0.807	0.732
NCI-H2405	0.689	1.01	1.01	1.01	0.984	0.383	0.39	0.423	0.404	0.943	0.967	0.763	0.902	1.17	0.609	0.656	0.578	0.39
NCI-H3122	1.01	1	1.09	1.02	0.983	0.362	0.36	0.384	0.364	0.89	0.799	0.915	1	0.994	1.02	1.03	0.974	0.971

Source: the supplement of paper PMC10307832
